These results are taken from ChEMBL document CHEMBL2331203, “Optimization of inhibitors of the tyrosine kinase EphB4. 2. Cellular potency improvement and binding mode validation by X-ray crystallography” (J Med Chem, 2013).

As a reminder, the IC50 is the concentration at which inhibition is half-maximal. Higher therefore signals weaker potency in that assay. In general, Papp B→A refers to the apparent permeability from the basolateral to the apical side of a cell layer.

Data set [1] in a line: Cytotoxicity against human GXF251L cells after 4 days by propidium iodide staining. To be noted: GXF 251L, 96 h.
Data set [2] is described as follows: Apparent permeability from basolateral to apical side in human Caco2 cells after 2 hrs by LC-MS/MS analysis. The data set is classed as ADME, cell-based. The following applies: Caco-2. (Caco-2 cells form a polarised layer with tight junctions and transporters.)
In data set [3] the target is T1, Ephrin type-B receptor 2 (Homo sapiens) (UniProt P29323).
T1 sequence (whole entry): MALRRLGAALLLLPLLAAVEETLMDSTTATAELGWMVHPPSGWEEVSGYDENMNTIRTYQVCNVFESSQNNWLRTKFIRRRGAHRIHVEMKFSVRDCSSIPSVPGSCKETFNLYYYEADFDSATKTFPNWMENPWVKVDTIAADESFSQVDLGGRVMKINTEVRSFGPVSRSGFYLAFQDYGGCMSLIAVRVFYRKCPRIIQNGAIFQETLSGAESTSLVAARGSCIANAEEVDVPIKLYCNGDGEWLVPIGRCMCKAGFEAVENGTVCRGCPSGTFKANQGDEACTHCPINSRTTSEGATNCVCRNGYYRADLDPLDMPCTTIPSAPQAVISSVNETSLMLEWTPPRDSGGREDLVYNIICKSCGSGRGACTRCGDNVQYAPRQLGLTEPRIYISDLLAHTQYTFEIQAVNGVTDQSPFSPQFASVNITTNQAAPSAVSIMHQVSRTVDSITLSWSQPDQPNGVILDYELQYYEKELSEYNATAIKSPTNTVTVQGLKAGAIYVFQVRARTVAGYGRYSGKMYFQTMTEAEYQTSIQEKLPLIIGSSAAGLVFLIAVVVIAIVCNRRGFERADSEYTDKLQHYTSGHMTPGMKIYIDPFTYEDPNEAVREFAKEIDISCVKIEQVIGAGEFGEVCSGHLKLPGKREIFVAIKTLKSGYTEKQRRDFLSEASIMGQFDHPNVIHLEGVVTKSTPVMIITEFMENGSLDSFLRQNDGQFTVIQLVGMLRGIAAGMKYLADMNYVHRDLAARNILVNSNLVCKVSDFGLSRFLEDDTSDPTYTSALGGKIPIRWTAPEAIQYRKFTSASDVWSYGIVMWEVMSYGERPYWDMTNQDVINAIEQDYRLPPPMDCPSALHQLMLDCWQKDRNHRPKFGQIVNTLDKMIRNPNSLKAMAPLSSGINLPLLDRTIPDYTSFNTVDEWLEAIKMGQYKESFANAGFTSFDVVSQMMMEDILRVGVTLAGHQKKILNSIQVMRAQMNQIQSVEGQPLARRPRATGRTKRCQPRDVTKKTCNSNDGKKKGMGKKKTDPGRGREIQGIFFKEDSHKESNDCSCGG
The experiment in a line: Inhibition of human Eph-B2 using [gamma-33P]ATP assessed as residual activity at 3 uM after 30 mins by radiometric assay.

Data set [4] is described as follows: Cytotoxicity against human RXF 393NL cells after 4 days by propidium iodide staining. To be noted: 96 h.
Data set [5] deals with Receptor-interacting serine/threonine-protein kinase 2 (Homo sapiens) (UniProt O43353). The experiment in a line: Inhibition of human RIPK2 using [gamma-33P]ATP assessed as residual activity at 3 uM after 30 mins by radiometric assay.
Data set [6] has as its target Tyrosine-protein kinase Lck (Homo sapiens, UniProt P06239). The experiment in a line: Inhibition of Lck (unknown origin) using [gamma-33P]ATP after 30 mins by radiometric assay.
Data set [7] has as its target T2, Ephrin type-B receptor 3 (Homo sapiens) (UniProt P54753).
T2 sequence (whole entry): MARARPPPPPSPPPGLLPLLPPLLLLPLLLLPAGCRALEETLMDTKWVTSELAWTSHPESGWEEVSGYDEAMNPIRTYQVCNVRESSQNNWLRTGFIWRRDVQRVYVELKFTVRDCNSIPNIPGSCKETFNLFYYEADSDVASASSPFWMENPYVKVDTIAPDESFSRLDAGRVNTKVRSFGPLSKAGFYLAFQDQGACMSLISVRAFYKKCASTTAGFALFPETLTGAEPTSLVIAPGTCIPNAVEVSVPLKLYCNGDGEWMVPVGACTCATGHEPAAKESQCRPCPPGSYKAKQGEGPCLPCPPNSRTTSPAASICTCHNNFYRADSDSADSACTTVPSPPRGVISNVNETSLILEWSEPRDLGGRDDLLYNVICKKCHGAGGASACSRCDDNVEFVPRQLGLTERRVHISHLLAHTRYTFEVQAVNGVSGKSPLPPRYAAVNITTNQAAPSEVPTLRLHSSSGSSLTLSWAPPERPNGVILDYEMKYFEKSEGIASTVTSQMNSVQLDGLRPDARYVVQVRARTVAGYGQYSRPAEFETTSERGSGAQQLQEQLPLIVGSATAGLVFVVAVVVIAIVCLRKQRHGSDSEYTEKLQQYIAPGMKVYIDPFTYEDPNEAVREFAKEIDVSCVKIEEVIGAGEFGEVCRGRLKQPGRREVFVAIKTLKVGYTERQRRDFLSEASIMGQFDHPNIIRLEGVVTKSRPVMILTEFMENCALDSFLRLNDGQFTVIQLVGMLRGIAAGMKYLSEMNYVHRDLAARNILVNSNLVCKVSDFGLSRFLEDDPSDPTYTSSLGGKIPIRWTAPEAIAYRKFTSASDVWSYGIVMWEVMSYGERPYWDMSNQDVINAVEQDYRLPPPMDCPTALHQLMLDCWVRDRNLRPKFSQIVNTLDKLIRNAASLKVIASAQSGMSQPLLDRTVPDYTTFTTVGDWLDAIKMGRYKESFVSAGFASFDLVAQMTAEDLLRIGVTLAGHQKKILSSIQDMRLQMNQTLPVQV
The experiment in a line: Inhibition of human Eph-B3 using [gamma-33P]ATP assessed as residual activity at 3 uM after 30 mins by radiometric assay.

Chain of Tyrosine-protein kinase Lck (P06239 whole entry): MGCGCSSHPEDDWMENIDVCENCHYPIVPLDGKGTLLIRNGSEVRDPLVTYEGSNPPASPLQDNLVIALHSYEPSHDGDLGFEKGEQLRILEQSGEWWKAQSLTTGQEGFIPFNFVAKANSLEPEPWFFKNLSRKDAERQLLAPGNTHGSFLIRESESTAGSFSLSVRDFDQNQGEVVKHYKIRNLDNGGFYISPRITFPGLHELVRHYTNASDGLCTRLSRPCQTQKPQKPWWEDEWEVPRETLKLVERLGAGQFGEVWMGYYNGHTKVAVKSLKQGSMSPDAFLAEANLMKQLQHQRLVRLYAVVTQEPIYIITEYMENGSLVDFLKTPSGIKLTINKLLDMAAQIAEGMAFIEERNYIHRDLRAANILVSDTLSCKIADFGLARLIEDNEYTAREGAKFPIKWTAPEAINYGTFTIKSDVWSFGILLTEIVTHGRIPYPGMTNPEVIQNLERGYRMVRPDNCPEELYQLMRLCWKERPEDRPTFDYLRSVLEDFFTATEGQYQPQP
Chain of Receptor-interacting serine/threonine-protein kinase 2 (Homo sapiens) (O43353 whole entry): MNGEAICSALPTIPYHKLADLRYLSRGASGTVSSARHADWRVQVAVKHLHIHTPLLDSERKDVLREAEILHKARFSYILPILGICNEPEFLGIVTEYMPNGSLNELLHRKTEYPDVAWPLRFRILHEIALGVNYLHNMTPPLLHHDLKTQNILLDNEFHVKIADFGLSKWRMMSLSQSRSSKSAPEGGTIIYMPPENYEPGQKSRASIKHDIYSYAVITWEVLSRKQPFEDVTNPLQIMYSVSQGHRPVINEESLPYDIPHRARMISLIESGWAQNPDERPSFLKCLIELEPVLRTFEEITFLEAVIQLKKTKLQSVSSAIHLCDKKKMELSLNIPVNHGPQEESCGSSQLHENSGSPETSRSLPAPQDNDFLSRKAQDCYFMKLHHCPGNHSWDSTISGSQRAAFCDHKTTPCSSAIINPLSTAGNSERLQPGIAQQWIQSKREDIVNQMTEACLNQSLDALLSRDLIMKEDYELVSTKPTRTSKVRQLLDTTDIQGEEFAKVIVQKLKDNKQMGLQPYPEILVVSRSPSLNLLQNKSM

For the compound `CCCCn1c(-c2ccccc2C)cn2c3c(=O)[nH]c(=O)n(C)c3nc12`, the 50% inhibitory concentration (IC50) in data set [1] amounted to 14.6 µM; in data set [4], 7.6 µM; in data set [6], 0.493 µM. Besides, the Papp B→A at 2 h in data set [2] turned out to be 28.1 ×10⁻⁶ cm/s. Besides, the results for the Activity in data set [3], in data set [5] and in data set [7] were 8%, 12% and 13%, respectively.
